Results as given in patent publication US7659078B1, “Method and kit for determination of prostacyclin in plasma” (University of Kentucky Research Foundation, priority 2002, dated 2010).

test system: anti-6-keto-PGF1α antibody; assay: Cross-reactivity of related prostaglandins in the 6-keto-PGF1α aequorin bioluminescent immunoassay; type: binding, sheep; details: calculated at 50% B/B0; cross reactant used in the dose response curve instead of 6-keto-PGF1α; assay buffer
Experimental: Dose-Response Curve: A dose-response curve was generated for 6-keto-PGF1α by simultaneously incubating 100 μL of 6-keto-PGF1α antibody (1:10,000 dilution), 50 μL of different concentrations of the serially diluted analyte, 6-keto-PGF1α, and 50 μL of 1×10^−10 M coelenterazine bound 6-keto-PGF1α-aequorin conjugate (1:500) on microtiter plates coated with the secondary antibody. The plate was incubated in dark at room temperature for two hours with shaking at 300 rpm. The plate was washed three times with the wash buffer to remove any unbound components. The light intensity was measured as described before.
Presence of various prostaglandins other than 6-keto-PGF1α in the blood can cause non-specific binding with the 6-keto-PGF1α antibody and interfere with the detection of 6-keto-PGF1α, giving extremely high values of 6-keto-PGF1α. Therefore, it becomes important to confirm that the amount of 6-keto-PGF1α obtained from our assay is only due to 6-keto-PGF1α and no other prostaglandin. The cross-reactivities of other prostaglandins similar in structure to 6-keto-PGF1α were determined by preparing standard solutions of the compounds in the assay buffer ranging from 100,000 to 100 pg/mL and using them in this assay for 6-keto-PGF1α. The measured 6-keto-PGF1α concentration at 50% B/B0 was then calculated. The percent cross-reactivities were calculated by comparison of measured cross-reactant concentration and the actual concentration (known amount) of the cross-reactant in the sample (Table 1). It must be noted that the prostaglandins occur at different times in the arachidonic acid pathway and in different concentrations. […] The assay can, therefore, be used to measure 6-keto-PGF1α directly from plasma.
Cross-reactivities of related prostaglandins were measured by using varying concentrations of 50 μL of the cross reactant in the dose response curve instead of 6-keto-PGF1α. The percent cross-reactivities were calculated at 50% B/B0.

| Molecule | Percent cross-reactivity [%] |
| --- | --- |
| CCCCC[C@H](O)/C=C/[C@@H]1[C@@H](CC(=O)CCC(=O)O)[C@@H](O)C[C@H]1O [2,3-dinor-6-keto-Prostaglandin F1, 2,3-dinor-6-keto-Prostaglandin F1α] | 10.1 |
| CCCCCC(=O)CCC1C(O)CC(O)C1CC(=O)CCCCC(=O)O (stereo not shown) [6,15-diketo-13,14-dihydro-Prostaglandin F1] | 1.83 |
| CCCCC[C@H](O)/C=C/[C@@H]1[C@@H](CC(=O)CCCCC(=O)O)[C@@H](O)C[C@H]1O [6-keto-Prostaglandin F1, 6-keto-Prostaglandin F1α] | 100 |
| CCCCCC(=O)CCC1C(O)CC(O)C1CCCCCCC(=O)O (stereo not shown) [13,14-dihydroxy-15-keto-Prostaglandin F1] | 0.45 |
| CCCCC[C@H](O)/C=C/[C@H]1C(=O)C[C@H](O)[C@@H]1C/C=C\CCCC(=O)O [Prostaglandin D2] | 7.75 |
| CCCCC[C@H](O)/C=C/[C@H]1[C@H](O)CC(=O)[C@@H]1CCCCCCC(=O)O [Prostaglandin E1] | 6.75 |
| CCCCC[C@H](O)/C=C/[C@@H]1[C@@H](CCCCCCC(=O)O)[C@@H](O)C[C@H]1O [Prostaglandin F1] | 5.4 |
| CCCCC[C@H](O)/C=C/[C@@H]1[C@@H](C/C=C\CCCC(=O)O)[C@@H](O)C[C@H]1O [Prostaglandin F2] | 3.41 |

test system: not listed separately; assay: 6-keto-PGF1α in plasma of PPH patients on intravenous prostacyclin, measured directly without extraction; type: in vivo, human; details: PPH patient plasma samples
Experimental: The analysis of 6-keto-PGF1α directly in plasma without extraction was performed by diluting the samples 1:200 times and using 50 μL in the dose-response curve along with 100 μL 6-keto-PGF1α of antibody and 50 μL of 6-keto-PGF1α-aequorin conjugate. The analysis was performed in the same manner as the dose-response curve described before. The amount of 6-keto-PGF1α in the samples was calculated from the standard dose response curve generated in plasma. The appropriate dilution factor was taken into consideration when calculating the amount of 6-keto-PGF1α present in each sample.
For in vivo analysis plasma samples were obtained from five patients with severe pulmonary arterial hypertension and 7 normal controls. […] All patient samples were analyzed in the same manner as the dose response curve in plasma. […] The amount of 6-keto-PGF1α in the samples was calculated as described before for sample analysis without extraction. […]
In order to obtain recovery data further analysis of the samples was performed. Two of the normal plasma samples and two patient plasma samples were first analyzed using the assay without extraction. […] The amount of 6-keto-PGF1α in the samples was calculated as described before for sample analysis without extraction. The samples were analyzed in triplicates. […]

| Molecule | levels of 6-keto-PGF1α in plasma versus prostacyclin dose |
| --- | --- |
| CCCCC[C@H](O)/C=C/[C@@H]1[C@H]2C/C(=C/CCCC(=O)O)O[C@H]2C[C@H]1O [Prostacyclin] | increased with increase in the prostacyclin dose |

test system: anti-6-keto-PGF1α antibody; assay: Binder dilution study of 6-keto-PGF1α-aequorin conjugates; type: binding, sheep; details: 1×10^−10 M conjugate, 2 h room temperature, secondary antibody-coated plate; compared with 1:50 and 1:200 conjugates
Experimental: For the binder dilution studies aliquots of 100 μL of different concentrations of serially diluted anti-6-keto-PGF1α antibody, produced in sheep and 50 μL of 1×10^−10 M 6-keto-PGF1α-aequorin conjugate were placed simultaneously in microtiter plates pre-coated with a secondary antibody, donkey anti-sheep IgG. All dilutions were done in the assay buffer. The plates were incubated in dark at room temperature for 2 h with shaking at 300 rpm. Then the plates were washed with wash buffer (30 mM Tris-HCL buffer, pH 7.0, containing 2 mM EDTA, 0.15 M NaCl, and 0.1% Tween 20) three times to remove any unbound primary antibody or any unbound conjugate. Finally, the light intensity was measured as described earlier for the calibration plot.
The next step was to study the interaction between the anti-6-keto-PGF1α antibody and the conjugates. […] After washing the plate to remove any unbound antibody or conjugate the luminescence was measured. […] The effect of increased or decreased amounts of 6-keto-PGF1α antibody and/or conjugate on the dose-response curve was also evaluated. […] The dose-response curve obtained for 6-keto-PGF1α as depicted in FIG. 3, is sigmoidal in shape, with the luminescence intensity being lower at high concentrations of 6-keto-PGF1α and increasing as the concentration of 6-keto-PGF1α decreases. […]

| binding to 6-keto-PGF1α antibody (binder-dilution curves) | Molecule |
| --- | --- |
| maximum binding | 1:500 conjugate: NHS ester of 6-keto-PGF1α conjugated to cysteine-free mutant aequorin at 1:500 mole ratio aequorin:6-keto-PGF1α (conjugate) VKLTPDFDNPKWIGRHKHMFNFLDVNHNGRISLDEMVYKASDIVINNLGATPEQAKRHKDAVEAFFGGAGMKYGVETEWPEYIEGWKRLASEELKRYSKNQITLIRLWGDALFDIIDKDQNGAISLDEWKAYTKSDGIIQSSEDSEETFRVSDIDESGQLDVDEMTRQHLGFWYTMDPASEKLYGGAVP |
